Columns and labels:
[1] = HPLC and mass spectrometry analysis of liver samples of treated mice; assay type: in vivo, mouse
Source text: (§1) Next, the RA oxidation pathway was investigated. […] In addition to secretion, Ret-NH2 might be degraded first by deamination to all-trans-retinol/retinal, which was seen to increase in Ret-NH2 treated cells. […] These observations explain the long-lasting effect of RetNH2, as the amide is stored and hydrolyzed back to the free amine.

RPE65 = biological target: T1, RPE65 (Bos taurus, UniProt Q28175); assay: gel filtration of RPE proteins with anti-RPE65 immunoblot; assay type: binding, bovine; conditions: RPE65 found in fractions 23-34
T1 construct: RPE microsomes were solubilized with 10 mM DHPC; from tissue; host or cells: bovine RPE microsomes, DHPC extract
Procedure: The specificity of Ret-NH2 was further tested by biochemical assays. […] When the RPE microsomes were solubilized with DHPC, the isomerase activity decreased only slightly. Then [^3H]-Ret-NH2 was added to the RPE extract and loaded on a gel filtration column. Proteins were fractionated and eluted between fractions 18 and 60 (FIG. 3A), while the radioactivity was eluted in fractions 36-38. RPE65 was identified by immunoblotting in fractions 23-34 (FIG. 3B). The most abundant proteins in this fraction were identified by mass spectrometry and include glucose phosphate isomerase, D-glyceraldehyde-3-phosphate dehydrogenase, phosphoglycerate mutase, triose phosphate isomerase, enolase, annexin V, calbindin 2, and LRAT. Identification of less abundant proteins is in progress.
RPE microsomes were solubilized with 10 mM DHPC, incubated with 11,12-di[^3H]-all-trans-Ret-NH2 (1 μM), and loaded on a Superdex 200 column equilibrated with Tris/HCl buffer, pH 7.5, containing 4 mM DHPC. Proteins were eluted with a constant flow rate of 0.4 ml/min. The protein and radioactivity levels of 0.4 ml fractions were examined by SDS-PAGE and scintillation counting (A), and immunoblot with anti-RPE65 and anti-LRAT antibodies (B). The star indicates the fraction associated with maximum radioactivity.

CYP26A1 = biological target: T2, CYP26A1 (Homo sapiens, UniProt O43174); assay: oxidation in HEK-293 cells transfected with CYP26A1 cDNA; assay type: in vitro ADME
T2 construct: expressed in transfected cells; host or cells: HEK-293
T2 sequence (O43174 1-497): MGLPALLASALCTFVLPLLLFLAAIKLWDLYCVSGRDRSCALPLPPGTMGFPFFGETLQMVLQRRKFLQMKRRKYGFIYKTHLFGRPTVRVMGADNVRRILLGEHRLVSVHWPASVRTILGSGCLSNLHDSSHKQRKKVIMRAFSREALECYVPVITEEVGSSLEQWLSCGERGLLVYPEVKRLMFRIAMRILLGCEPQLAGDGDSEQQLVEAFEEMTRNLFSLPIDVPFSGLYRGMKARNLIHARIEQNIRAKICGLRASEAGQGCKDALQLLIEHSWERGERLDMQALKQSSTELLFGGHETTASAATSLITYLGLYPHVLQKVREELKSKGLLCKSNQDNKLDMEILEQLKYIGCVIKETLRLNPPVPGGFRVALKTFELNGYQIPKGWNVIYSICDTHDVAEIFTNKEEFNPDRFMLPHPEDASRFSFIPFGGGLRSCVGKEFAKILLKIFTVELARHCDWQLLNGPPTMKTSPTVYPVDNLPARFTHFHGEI
Source text: as §1

RXR = biological target: T3, RXR (Mus musculus, UniProt P28700); assay: HEK-293 cells with DR1-lacZ reporter and mouse RXRA, β-galactosidase activity; assay type: cell-based; conditions: 48 hours treatment, micromolar concentrations
T3 construct: The RXR-A ORF was then subcloned into pcDNA3.1 Directional TOPO vector; expressed in transfected cells; host or cells: HEK-293, transient transfection with pcDNA3.1 Directional TOPO
T3 sequence (P28700 1-467): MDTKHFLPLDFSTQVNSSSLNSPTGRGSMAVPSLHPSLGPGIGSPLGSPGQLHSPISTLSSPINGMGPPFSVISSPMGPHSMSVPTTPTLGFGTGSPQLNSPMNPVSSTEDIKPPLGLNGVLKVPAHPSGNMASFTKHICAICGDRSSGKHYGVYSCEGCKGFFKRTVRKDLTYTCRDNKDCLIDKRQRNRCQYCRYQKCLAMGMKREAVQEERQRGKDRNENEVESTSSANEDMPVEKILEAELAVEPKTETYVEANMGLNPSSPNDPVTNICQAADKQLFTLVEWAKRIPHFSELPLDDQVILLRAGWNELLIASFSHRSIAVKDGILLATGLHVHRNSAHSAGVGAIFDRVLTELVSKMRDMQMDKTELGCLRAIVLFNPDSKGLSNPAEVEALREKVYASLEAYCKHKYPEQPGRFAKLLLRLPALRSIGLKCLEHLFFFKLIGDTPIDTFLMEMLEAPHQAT

RAR = assay: F9-RARE-lacZ reporter cell line, β-galactosidase activity (DR5 elements); assay type: cell-based; conditions: 24 hours treatment, micromolar concentrations
Source text: 13-cis-RA can isomerize to all-trans-RA and then to 9-cis-RA, both of which are potent ligands of the RA receptor (RAR). 9-cis-RA also binds and activates the retinoid X receptor (RXR). This contributes to the toxicity of the RAR and RXR ligands. It was investigated whether Ret-NH2 can activate these nuclear receptor using reporter-cells as described previously (20). A β-galactosidase activity assay was employed to examine if all-trans-RA, 9-cis-RA, and Ret-NH2 are agonists for these nuclear receptors.
F9-RARE-lacZ cells express endogenous RAR and RXR and were transfected with a construct of lacZ under the control of a minimal promoter and upstream DR5 elements (1). F9-RARE-lacZ cells were treated with different doses of all-trans-RA or Ret-NH2 for 24 hours after which the cells were harvested and the β-galactosidase activity was measured using the soluble substrate o-nitrophenyl β-D-galactopyranoside. The colorless substrate was cleaved by β-galactosidase to yellow colored o-nitrophenol, whose absorbance was measured at 420 nm using a spectrophotometer. The experiment was repeated twice with similar results. The RARE reporter cell line F9-RARE-lacZ (SIL15-RA) was a kind gift from Dr. Michael Wagner (SUNY Downstate Medical Center) and Dr. Peter McCaffery (University of Massachusetts Medical School). […]

[2] = observation of mice for systemic toxicity after oral gavage; assay type: in vivo; conditions: single doses 0.5 to 100 mg/kg

T1 sequence (Q28175 whole entry): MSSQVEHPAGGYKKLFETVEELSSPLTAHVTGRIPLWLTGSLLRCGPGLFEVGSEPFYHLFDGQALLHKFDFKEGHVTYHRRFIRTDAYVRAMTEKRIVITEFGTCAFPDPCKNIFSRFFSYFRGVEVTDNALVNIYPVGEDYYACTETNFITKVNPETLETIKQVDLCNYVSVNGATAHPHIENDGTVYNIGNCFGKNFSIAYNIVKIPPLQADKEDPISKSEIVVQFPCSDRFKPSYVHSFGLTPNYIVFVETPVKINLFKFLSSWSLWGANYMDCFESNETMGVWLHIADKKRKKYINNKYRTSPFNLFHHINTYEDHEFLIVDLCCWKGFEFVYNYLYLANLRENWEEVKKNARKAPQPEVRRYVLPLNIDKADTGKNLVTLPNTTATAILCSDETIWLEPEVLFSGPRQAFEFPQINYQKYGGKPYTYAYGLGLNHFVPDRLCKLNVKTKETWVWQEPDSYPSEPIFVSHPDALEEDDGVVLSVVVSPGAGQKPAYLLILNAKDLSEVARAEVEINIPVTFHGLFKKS

| SMILES | metabolite found in liver [1] | binding to RPE65 (RPE65) | oxidation by CYP26A1 (CYP26A1) | activation of transcription through RXR (DR1 elements) (RXR) | activation of transcription through RAR (DR5 RARE) (RAR) | symptoms of systemic toxicity such as weight loss or gastrointestinal disorder [2] |
| --- | --- | --- | --- | --- | --- | --- |
| CC1=C(/C=C/C(C)=C/C=C/C(C)=C/CN)C(C)(C)CCC1 [Ret-NH2, Retinylamine] | amidated to N-retinylpalmitamide | does not bind | no evidence of the presence of hydroxy- or oxo-Ret-NH2 | – | – | – |
| CC1=C(/C=C/C(C)=C/C=C/C(C)=C/CN)C(C)(C)CCC1 [all-trans-Ret-NH2, all-trans-retinylamine] | – | – | – | does not activate protein transcription | does not activate protein transcription | did not exhibit symptoms of systemic toxicity |

— patent US20080275134A1, “Methods for Treatment of Retinal Degenerative Disease” (University of Washington, priority 2005, published 2008)
